Assay results reported in US5624923A, “Tricyclic diazepine vasopressin antagonists and oxytocin antagonists” (priority 1995, dated 1997).
Where “and” joins values, the source holds several entries; their conditions need not be identical. Identical values can stand only once. One block for each compound: values may come before it.

Key:
Vasopressin V2 = Vasopressin V2 Antagonist Activity in Conscious Hydrated Rats; format: in vivo, rat; conditions: AVP 0.4 μg/kg i.p.
Method: Vasopressin V2 Antagonist Activity in Conscious Hydrated Rats
Conscious hydrated rats are treated with compounds under study from 0.1 to 100 mg/kg orally or vehicle. Two to four rats are used for each compound. One hour later, arginine vasopressin (AVP, antidiuretic hormore, ADH) dissolved in peanut oil is administered at 0.4 μg/kg intraperitoneally. Two rats in each test would not receive arginine vasopressin but only the vehicle (peanut oil) to serve as water-loading control. Twenty minutes later each rat is given 30 mL/kg of deionized water orally by gavage and is placed individually in a metabolic cage equipped with a funnel and a graduated glass cylinder to collect urine for four hours. Urine volume is measured and osmolality analyzed by use of a Fiske One-Ten osmometer (Fiske Assoc., Norwood, Mass., USA). Urinary sodium, potassium, and chloride are analyzed by use of ion-specific electrodes in a Beckman E3 (Electrolyte 3) Analyzer.

Vasopressin V1 = Vasopressin V1 Antagonist Activity in Conscious Rats (vasopressin vasopressor response); format: in vivo, rat; set-up: Average Change: unit not given here; conditions: SHR
Method: Vasopressin V1 Antagonist Activity in Conscious Rats
Conscious rats are restrained in a supine position with elastic tape. The area at the base of the tail is locally anesthetized by subcutaneous infiltration with 2% procaine (0.2 ml). Using aseptic technique the ventral caudal tail artery is isolated and a cannula made of PE 10 and 20 (heat-fused) tubing is passed into the lower abdominal aorta. The cannula is secured, heparinized (1000 i.u./cc), sealed and the wound closed with one or two stitches of Dexon 4-0. The caudal vein is also cannulated in the same manner for intravenous drug administration. The duration of the surgery is approximately 5 minutes. Additional local anesthesia (2% procaine or lidocaine) is provided as needed.
The animals are placed in plastic restraining cages in an upright position. The cannula is attached to a Statham P23Db pressure transducer and pulsatile blood pressure is recorded. […] The vasopressin injections are repeated 30,60,90,120,180,240 and 300 min. later. Percentage of antagonism by the compound is calculated using the pre-drug vasopressin vasopressor response as 100%.

oxytocin receptors = molecular target: T1, oxytocin receptors (Rattus norvegicus, UniProt P70536); assay: Oxytocin Receptor Binding
T1 construct: The uteri are dissected out, cleaned of fat and connective tissues; from tissue; host or cells: uterus of DES-treated female Sprague-Dawley rats
T1 sequence (P70536 1-388): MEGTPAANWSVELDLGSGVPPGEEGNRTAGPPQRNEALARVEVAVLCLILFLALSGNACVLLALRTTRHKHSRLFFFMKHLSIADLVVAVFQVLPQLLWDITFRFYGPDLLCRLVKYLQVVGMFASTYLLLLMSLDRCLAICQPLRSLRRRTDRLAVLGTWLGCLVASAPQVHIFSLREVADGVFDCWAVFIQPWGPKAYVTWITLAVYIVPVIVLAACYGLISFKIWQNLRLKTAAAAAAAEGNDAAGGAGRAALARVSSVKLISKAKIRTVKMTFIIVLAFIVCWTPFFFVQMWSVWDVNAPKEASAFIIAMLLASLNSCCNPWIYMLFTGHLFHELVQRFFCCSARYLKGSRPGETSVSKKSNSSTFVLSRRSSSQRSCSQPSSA
Method: Oxytocin Receptor Binding
Female Sprague-Dawley rats weighing approximately 200-250 g are injected intramuscularly (i.m.) with 0.3 mg/kg of body weight of diethylstilbestrol (DES). The rats are sacrificed 18 hours later under pentobarbital anesthesia. The uteri are dissected out, cleaned of fat and connective tissues and rinsed in 50 ml of normal saline. The tissue pooled from six rats is homogenized in 50 ml of […] Tris.HCl, containing 0.5 mM dithiothreitol and 1.0 mM EDTA, adjusted to pH 7.4, using a polytron at setting 6 with three passes of 10 sec each. The homogenate is passed through two (2) layers of cheesecloth and the filtrate centrifuged at 1000× g for 10 min. The clear supernatant is removed and recentrifuged at 165,000× g for 30 min. The resulting pellet containing the oxytocin receptors is resuspended in 50.0 mM Tris.HCl containing 5.0 mM MgCl2 at pH 7.4, to give a protein concentration of 2.5 mg/ml of tissue suspension. This preparation is used in subsequent binding assays with [^3 H]Oxytocin.
Binding of 3,5-[^3 H]Oxytocin ([^3 H]OT) to its receptors is done in microtiter plates using [^3 H]OT, at various concentrations, in an assay buffer of 50.0 mM Tris.HCl, pH 7.4 and containing 5.0 mM MgCl2, and a mixture of protease inhibitors: BSA, 0.1 mg; aprotinin, 1.0 mg; 1,10-phenanthroline, 2.0 mg; […], 10.0 mg; and PMSF, 0.3 mg per 100 ml of buffer solution. Non-specific binding is determined in the presence of 1.0 uM unlabeled OT. The binding reaction is terminated after 60 min , at 22° C. by rapid filtration through glass fiber filters using a Brandel® cell harvester (Biomedical Research and Development Laboratories, Inc., Gaithersburg, Md.). Competition experiments are conducted at equilibrium using 1.0 nM [^3 H]OT and varying the concentration of the displacing agents. The concentrations of agent displacing 50% of [^3 H]OT at its sites (IC50) are calculated by a computer assisted LUNDON-2 program (LUNDON SOFTWARE INC., Ohio, USA).

[1] = 10 mg/kg i.v., VAS 0.01 i.u./kg, 60 min
[2] = 10 mg/kg i.v., VAS 0.01 i.u./kg, 90 min
[3] = 10 mg/kg i.v., VAS 0.01 i.u./kg, 120 min
[4] = 10 mg/kg i.v., VAS 0.01 i.u./kg, 180 min
[5] = 10 mg/kg i.v., VAS 0.01 i.u./kg, 240 min
[6] = 10 mg/kg i.v., VAS 0.01 i.u./kg, 300 min
[7] = 10 mg/kg i.v., VAS 0.02 i.u./kg, 60 min
[8] = 10 mg/kg i.v., VAS 0.02 i.u./kg, 90 min
[9] = 10 mg/kg i.v., VAS 0.02 i.u./kg, 120 min
[10] = 10 mg/kg i.v., VAS 0.02 i.u./kg, 180 min
[11] = 10 mg/kg i.v., VAS 0.02 i.u./kg, 240 min
[12] = 10 mg/kg i.v., VAS 0.02 i.u./kg, 300 min
[13] = 20 mg/kg i.v., VAS 0.01 i.u./kg, 60 min
[14] = 20 mg/kg i.v., VAS 0.01 i.u./kg, 90 min
[15] = 20 mg/kg i.v., VAS 0.01 i.u./kg, 120 min
[16] = 20 mg/kg i.v., VAS 0.01 i.u./kg, 180 min
[17] = 20 mg/kg i.v., VAS 0.01 i.u./kg, 240 min
[18] = 20 mg/kg i.v., VAS 0.01 i.u./kg, 300 min
[19] = 20 mg/kg i.v., VAS 0.02 i.u./kg, 60 min
[20] = 20 mg/kg i.v., VAS 0.02 i.u./kg, 90 min
[21] = 20 mg/kg i.v., VAS 0.02 i.u./kg, 120 min
[22] = 20 mg/kg i.v., VAS 0.02 i.u./kg, 180 min
[23] = 20 mg/kg i.v., VAS 0.02 i.u./kg, 240 min
[24] = 20 mg/kg i.v., VAS 0.02 i.u./kg, 300 min

inhibition at 10 µM (oxytocin receptors; [3H]oxytocin): 39%
SMILES: Cc1c(F)cccc1C(=O)Nc1ccc(C(=O)O)cc1 [Example 418, 4-[(3-fluoro-2-methylbenzoyl)amino]-benzoic acid]

inhibition at 10 µM (oxytocin receptors; [3H]oxytocin): 28%
SMILES: Cc1ccc(F)cc1C(=O)Nc1ccc(C(=O)O)c(Cl)c1 [Example 419, 4-[(5-fluoro-2-methylbenzoyl)amino]-2-chlorobenzoic acid]

inhibition at 10 µM (oxytocin receptors; [3H]oxytocin): 16%
SMILES: Cc1c(F)cccc1C(=O)Nc1ccc(C(=O)O)c(Cl)c1 [Example 420]

inhibition at 10 µM (oxytocin receptors; [3H]oxytocin): 11%
SMILES: O=C(O)c1ccc(NC(=O)c2ccc(Cl)cc2Cl)cc1Cl [Example 429, 4-[(2,4-Dichlorobenzoyl)amino]-2-chlorobenzoic acid]

inhibition at 10 µM (oxytocin receptors; [3H]oxytocin): 18%
SMILES: Cc1ccccc1C(=O)Nc1c(C)cc(C(=O)O)cc1C [Example 431, 4-[(2-methylbenzoyl)amino]-3,5-di-methylbenzoic acid]

inhibition at 10 µM (oxytocin receptors; [3H]oxytocin): 19%
SMILES: Cc1cc(C(=O)O)cc(C)c1NC(=O)c1ccc(Cl)cc1Cl [Example 432, 4-[(2,4-dichlorobenzoyl)amino]-3,5-dimethylbenzoic acid]

inhibition at 10 µM (oxytocin receptors; [3H]oxytocin): 12%
SMILES: Cc1ccccc1C(=O)Nc1ccc(C(=O)O)cc1Cl [Example 433, 4-[(2-methylbenzoyl)amino]-3-chloro-benzoic acid]

inhibition at 10 µM (oxytocin receptors; [3H]oxytocin): 10%
SMILES: Cc1c(F)cccc1C(=O)Nc1ccc(C(=O)O)cc1Cl [Example 435, 4-[(3-fluoro-2-methylbenzoyl)amino]-3-chlorobenzoic acid]

inhibition at 10 µM (oxytocin receptors; [3H]oxytocin): 32%
SMILES: Cc1ccc(F)cc1C(=O)Nc1ccc(C(=O)O)cc1Cl [Example 436, 4-[(5-fluoro-2-methylbenzoyl)amino]-3-chlorobenzoic acid]

inhibition at 1 µM (oxytocin receptors; dose 1 μM, [3H]oxytocin): 22%
SMILES: O=C(Nc1ccc(C(=O)O)c(Cl)c1)c1cccc(F)c1 [Example 441, 4-[[3-fluorobenzoyl]amino]-2-chloro-benzoic acid]

Continued, compound first:

SMILES: O=C(Nc1ccc(C(=O)N2Cc3cccn3-c3ccccc32)cc1)c1cc(Cl)ccc1Cl [Example 16, N-[4-(pyrrolo[1,2-a]quinoxalin-5(4H)-ylcarbonyl)phenyl]-2,5-dichloro-benzamide]
Osmolality (Vasopressin V2; 10 mg/kg orally): 1242 mOsm/kg | Urine Volume (Vasopressin V2; 10 mg/kg orally): 5.5 ml/4 hrs | Osmolality (Vasopressin V2; 30 mg/kg orally): 1295 mOsm/kg | Urine Volume (Vasopressin V2; 30 mg/kg orally): 8 ml/4 hrs

SMILES: Cc1cc(C(=O)N2Cc3cccn3Cc3ccccc32)ccc1N [Example 95, 10,11-Dihydro-10-(4-amino-3-methylbenzoyl)-5H-pyrrolo[2,1-c][1,4]benzodiazepine]
% Inhibition (Vasopressin V1; 10 mg/kg i.v., VAS 0.01 i.u./kg, 30 min): 35% and 65% | % Inhibition (Vasopressin V1; [1]): 78% | Average Change (Vasopressin V1; [1]): 7 | % Inhibition (Vasopressin V1; [2]): 58% | Average Change (Vasopressin V1; [2]): 13.5 | % Inhibition (Vasopressin V1; [3]): 58% | Average Change (Vasopressin V1; [3]): 13.5 | % Inhibition (Vasopressin V1; [4]): 52% | Average Change (Vasopressin V1; [4]): 15.5 | % Inhibition (Vasopressin V1; [5]): 43% | Average Change (Vasopressin V1; [5]): 18.5 | % Inhibition (Vasopressin V1; [6]): 52% | Average Change (Vasopressin V1; [6]): 15.5 | % Inhibition (Vasopressin V1; [7]): 78% | Average Change (Vasopressin V1; [7]): 12.5 | % Inhibition (Vasopressin V1; [8]): 72% | Average Change (Vasopressin V1; [8]): 16 | % Inhibition (Vasopressin V1; [9]): 70% | Average Change (Vasopressin V1; [9]): 17.5 | % Inhibition (Vasopressin V1; [10]): 72% | Average Change (Vasopressin V1; [10]): 16 | % Inhibition (Vasopressin V1; [11]): 31% | Average Change (Vasopressin V1; [11]): 39.5 | % Inhibition (Vasopressin V1; [12]): 27% | Average Change (Vasopressin V1; [12]): 42 | % Inhibition (Vasopressin V1; [13]): 67% | Average Change (Vasopressin V1; [13]): 15 | % Inhibition (Vasopressin V1; [14]): 70% | Average Change (Vasopressin V1; [14]): 13.5 | % Inhibition (Vasopressin V1; [15]): 47% | Average Change (Vasopressin V1; [15]): 24 | % Inhibition (Vasopressin V1; [16]): 48% | Average Change (Vasopressin V1; [16]): 23.5 | % Inhibition (Vasopressin V1; [17]): 53% | Average Change (Vasopressin V1; [17]): 21.5 | % Inhibition (Vasopressin V1; [18]): 46% | Average Change (Vasopressin V1; [18]): 24.5 | % Inhibition (Vasopressin V1; [19]): 68% | Average Change (Vasopressin V1; [19]): 19.5 | % Inhibition (Vasopressin V1; [20]): 61% | Average Change (Vasopressin V1; [20]): 24 | % Inhibition (Vasopressin V1; [21]): 53% | Average Change (Vasopressin V1; [21]): 28.5 | % Inhibition (Vasopressin V1; [22]): 44% | Average Change (Vasopressin V1; [22]): 34 | % Inhibition (Vasopressin V1; [23]): 44% | Average Change (Vasopressin V1; [23]): 34 | % Inhibition (Vasopressin V1; [24]): 39% | Average Change (Vasopressin V1; [24]): 37.5

SMILES: Nc1ccc(C(=O)N2Cc3cccn3Cc3ccccc32)c(Cl)c1 [Example 416, 10,11-Dihydro-10-(2-chloro-4-aminobenzoyl)-5H-pyrrolo[2,1-c][1,4]benzodiazepine]
IC50 (oxytocin receptors; 1.0 nM [3H]oxytocin): 7.4 µM | inhibition at 10 µM (oxytocin receptors; [3H]oxytocin): 44.6%

SMILES: Cc1ccc(F)cc1C(=O)Nc1ccc(C(=O)O)cc1 [Example 417, 4-[(5-Fluoro-2-methylbenzoyl)amino]benzoic acid]
inhibition at 10 µM (oxytocin receptors; [3H]oxytocin): 21%

SMILES: Cc1ccccc1C(=O)Nc1ccc(C(=O)O)c(Cl)c1 [Example 430, 4-[(2-methylbenzoyl)amino]-2-chloro-benzoic acid]
inhibition at 10 µM (oxytocin receptors; [3H]oxytocin): 16%

SMILES: CCOC(=O)c1ccc2n1Cc1ccccc1N(C(=O)c1ccc([N+](=O)[O-])cc1Cl)C2 [Example 443, Ethyl 10,11-dihydro-10-(2-chloro-4-nitrobenzoyl)-5H-pyrrolo[2,1-c][1,4]benzodiazepine-3-carboxylate]
inhibition at 10 µM (oxytocin receptors; [3H]oxytocin): 70%
